Results taken from US20260374754A1, “N-((ISOQUINOLIN-6-YL)METHYL)-1H-PYRAZOLE-4-CARBOXAMIDE DERIVATIVES AS PLASMA KALLIKREIN INHIBITORS FOR THE TREATMENT OF HEREDITARY ANGIODEMA” (Takeda Pharmaceutical Company Limited, priority 2022, published 2026).

Target: human activated kallikrein enzyme (Homo sapiens, UniProt P03952)
Experiment: Inhibition of human activated plasma kallikrein, fluorogenic PFR-AMC substrate, 500 pM enzyme format
Assay type: biochemical
Conditions: 500 pM activated kallikrein; 300 μM PFR-AMC; 30 min preincubation; 10 min room temperature; pH 7.5; read-out: Primary Dose Response Assay: Average EC50
Summary of the method: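 500 pM activated kallikrein preincubated 30 min at room temperature with inhibitors in pH 7.5 Tris/EDTA/NaCl buffer with PEG-400 and Triton X-100. Reaction started with 300 μM PFR-AMC, run 10 min at room temperature; AMC fluorescence read at ex 380/em 460 nm.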

Chain of human activated kallikrein enzyme (P03952 391-638 limits assumed): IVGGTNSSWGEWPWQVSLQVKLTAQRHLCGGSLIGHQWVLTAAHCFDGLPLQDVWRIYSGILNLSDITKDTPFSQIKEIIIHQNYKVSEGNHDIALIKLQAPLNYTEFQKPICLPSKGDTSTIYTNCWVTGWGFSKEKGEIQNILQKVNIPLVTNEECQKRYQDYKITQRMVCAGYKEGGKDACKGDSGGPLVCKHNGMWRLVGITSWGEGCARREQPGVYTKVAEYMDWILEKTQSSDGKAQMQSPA
Chain of human activated kallikrein enzyme (P03952 20-390 partner limits assumed): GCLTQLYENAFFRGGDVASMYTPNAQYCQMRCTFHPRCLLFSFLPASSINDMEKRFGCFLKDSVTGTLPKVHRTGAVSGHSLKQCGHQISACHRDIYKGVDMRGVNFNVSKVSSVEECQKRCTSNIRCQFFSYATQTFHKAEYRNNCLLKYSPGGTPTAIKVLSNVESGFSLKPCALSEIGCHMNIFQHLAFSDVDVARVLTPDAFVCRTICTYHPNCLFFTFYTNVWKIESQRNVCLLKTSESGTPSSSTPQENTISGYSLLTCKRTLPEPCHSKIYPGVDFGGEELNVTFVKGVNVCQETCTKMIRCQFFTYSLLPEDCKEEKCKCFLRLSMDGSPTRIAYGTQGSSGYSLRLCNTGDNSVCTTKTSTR

SMILES | EC50
Cc1cc2c(N)nccc2c(C)c1CNc1cn2c(Cc3ccc4ccccc4c3)ncc2cn1 [Example 523, 5,7-dimethyl-6-(((3-(naphthalen-2-ylmethyl)imidazo[1,5-a]pyrazin-6-yl)amino)methyl)isoquinolin-1-amine] | > 1000 nM
Cc1cc2c(N)nccc2c(C)c1CNc1cc2c(Cc3ccc4ccccc4c3)cn(C)c2cn1 [Example 524, 5,7-dimethyl-6-(((1-methyl-3-(naphthalen-2-ylmethyl)-1H-pyrrolo[2,3-c]pyridin-5-yl)amino)methyl)isoquinolin-1-amine] | > 1000 nM
Cc1cc2c(N)nccc2c(C)c1CNc1nccn2cc(Cc3ccc4ccccc4c3)nc12 [Example 525, 5,7-dimethyl-6-(((2-(naphthalen-2-ylmethyl)imidazo[1,2-a]pyrazin-8-yl)amino)methyl)isoquinolin-1-amine] | 100 to 1000 nM
Cc1cc2c(N)nccc2c(C)c1CNc1cc2c(Cc3ccc4ccccc4c3)c[nH]c2cn1 [Example 526, 5,7-dimethyl-6-(((3-(naphthalen-2-ylmethyl)-1H-pyrrolo[2,3-c]pyridin-5-yl)amino)methyl)isoquinolin-1-amine] | > 1000 nM
Cc1cc2c(N)nccc2c(C)c1CNc1cnc2[nH]cc(Cc3ccc4ccccc4c3)c2c1 [Example 527, 5,7-dimethyl-6-(((3-(naphthalen-2-ylmethyl)-1H-pyrrolo[2,3-b]pyridin-5-yl)amino)methyl)isoquinolin-1-amine] | > 1000 nM
Cc1cc2c(N)nccc2c(C)c1CNc1cc2c(ccn2Cc2ccc3ncccc3c2)cn1 [Example 528, 5,7-dimethyl-6-(((1-(quinolin-6-ylmethyl)-1H-pyrrolo[3,2-c]pyridin-6-yl)amino)methyl)isoquinolin-1-amine] | > 1000 nM
Cc1cc2c(N)nccc2c(C)c1CNc1cnnc(OCc2ccc(Cn3cccn3)cc2)c1 [Example 530, 6-(((6-((4-((1H-pyrazol-1-yl)methyl)benzyl)oxy)pyridazin-4-yl)amino)methyl)-5,7-dimethylisoquinolin-1-amine] | 10 to 100 nM
Cc1cc2c(N)nccc2c(C)c1CNc1cc2c(ccn2Cc2ccc3ncc(Cl)cc3c2)cn1 [Example 531, 6-(((1-((3-chloroquinolin-6-yl)methyl)-1H-pyrrolo[3,2-c]pyridin-6-yl)amino)methyl)-5,7-dimethylisoquinolin-1-amine] | 10 to 100 nM
Cc1cc2c(N)nccc2cc1CNc1cc(OCc2ccc(Cn3cccn3)cc2)ncn1 [Example 534, 6-(((6-((4-((1H-pyrazol-1-yl)methyl)benzyl)oxy)pyrimidin-4-yl)amino)methyl)-7-methylisoquinolin-1-amine] | 10 to 100 nM
Nc1nccc2cc(CNc3cc(OCc4ccc(Cn5cccn5)cc4)ncn3)c(C(F)(F)F)cc12 [Example 535, 6-(((6-((4-((1H-pyrazol-1-yl)methyl)benzyl)oxy)pyrimidin-4-yl)amino)methyl)-7-(trifluoromethyl)isoquinolin-1-amine] | 100 to 1000 nM
Cc1cc2c(N)nccc2c(C)c1CNc1ncnc2oc(Cc3ccc4ncc(Cl)cc4c3)nc12 [Example 538, N-((1-amino-5,7-dimethylisoquinolin-6-yl)methyl)-2-((3-chloroquinolin-6-yl)methyl)oxazolo[5,4-d]pyrimidin-7-amine] | 10 to 100 nM
Cc1cc2c(N)nccc2c(C)c1CNc1ncnc2c1nc(Cc1ccc3ncc(Cl)cc3c1)n2C [Example 539, 6-(((8-((3-chloroquinolin-6-yl)methyl)-9-methyl-9H-purin-6-yl)amino)methyl)-5,7-dimethylisoquinolin-1-amine] | 100 to 1000 nM
Cc1cc2c(N)nccc2c(C)c1CNc1ncnc2[nH]c(Cc3ccc4ccccc4c3)cc12 [Example 540, 5,7-dimethyl-6-(((6-(naphthalen-2-ylmethyl)-7H-pyrrolo[2,3-d]pyrimidin-4-yl)amino)methyl)isoquinolin-1-amine] | 10 to 100 nM
Cc1cc2c(N)nccc2c(C)c1CNc1cc2nn(Cc3ccc(Cn4cccn4)cc3)cc2cn1 [Example I-459, 6-(((2-(4-((1H-pyrazol-1-yl)methyl)benzyl)-2H-pyrazolo[4,3-c]pyridin-6-yl)amino)methyl)-5,7-dimethylisoquinolin-1-amine] | 10 to 100 nM
Cc1cc2c(N)nccc2c(C)c1CNc1cc(CCc2ccc(Cn3cccn3)cc2)ncn1 [Example I-460, 6-((6-(4-((1H-pyrazol-1-yl)methyl)phenethyl)pyrimidin-4-ylamino)methyl)-5,7-dimethylisoquinolin-1-amine] | 10 to 100 nM
Cc1cc2c(N)nccc2c(C)c1CNc1cc(NCc2ccc(CO)cc2)ncn1 [Example I-461, (4-(((6-(((1-amino-5,7-dimethylisoquinolin-6-yl)methyl)amino)pyrimidin-4-yl)amino)methyl)phenyl)methanol] | 1 to 10 nM
Cc1cc2c(N)nccc2c(C)c1CNc1cnnc(OCc2ccc(CC(=O)N(C)C)cc2)c1 [Example I-462, 2-(4-(((5-(((1-amino-5,7-dimethylisoquinolin-6-yl)methyl)amino)pyridazin-3-yl)oxy)methyl)phenyl)-N,N-dimethylacetamide] | > 1000 nM
Cc1cc2c(N)nccc2c(C)c1CNc1cc(OCc2ccc(CC(=O)N(C)C)cc2)ncn1 [Example I-466, 2-(4-(((6-(((1-amino-5,7-dimethylisoquinolin-6-yl)methyl)amino)pyrimidin-4-yl)oxy)methyl)phenyl)-N,N-dimethylacetamide] | 1 to 10 nM
Cc1cc2c(Nc3cc(OCc4ccc(CC(=O)N(C)C)cc4)ncn3)nccc2c(C)c1CN [Example I-467, 2-(4-(((6-((6-(aminomethyl)-5,7-dimethylisoquinolin-1-yl)amino)pyrimidin-4-yl)oxy)methyl)phenyl)-N,N-dimethylacetamide] | > 1000 nM
Cc1cc2c(N)nccc2c(C)c1CNc1cc(OCc2ccc(Cn3cccn3)cc2)c2c(c1)C(=O)N(C)C2 [Example I-468, 4-((4-((1H-pyrazol-1-yl)methyl)benzyl)oxy)-6-(((1-amino-5,7-dimethylisoquinolin-6-yl)methyl)amino)-2-methylisoindolin-1-one] | 1 to 10 nM
Cc1cc2c(N)nccc2c(C)c1CNC(=O)c1cnn(C(F)(F)c2ccc(Br)cc2)c1 [Example I-469, N-((1-amino-5,7-dimethylisoquinolin-6-yl)methyl)-1-((4-bromophenyl)difluoromethyl)-1H-pyrazole-4-carboxamide] | 100 to 1000 nM
CC(=O)Nc1nccc2c(C)c(CNc3cc(OCc4ccc(Cn5cccn5)cc4)cnn3)c(C)cc12 [Example I-470, N-(6-(((5-((4-((1H-pyrazol-1-yl)methyl)benzyl)oxy)pyridazin-3-yl)amino)methyl)-5,7-dimethylisoquinolin-1-yl)acetamide] | 10 to 100 nM

More lines, now with the values ahead:

EC50 | SMILES
1 to 10 nM | Cc1cc2c(N)nccc2c(C)c1CNc1cc(C(F)c2cn3cc(C4CC4)ccc3n2)ncn1 (centres unmarked) [Example 529, 6-(((6-((6-cyclopropylimidazo[1,2-a]pyridin-2-yl)fluoromethyl)pyrimidin-4-yl)amino)methyl)-5,7-dimethylisoquinolin-1-amine]
< 1 nM | Cc1c(CNc2cc(NCc3ccc(Cn4ccccc4=O)cc3)cnn2)ccc2c(N)nccc12 [Example 536, 1-(4-(((6-(((1-amino-5-methylisoquinolin-6-yl)methyl)amino)pyridazin-4-yl)amino)methyl)benzyl)pyridin-2(1H)-one]
< 1 nM | Cc1cc2c(N)nccc2c(C)c1CNc1cnnc(NCc2ccc(Cn3ccccc3=O)cc2)c1 [Example 537, 1-(4-(((5-(((1-amino-5,7-dimethylisoquinolin-6-yl)methyl)amino)pyridazin-3-yl)amino)methyl)benzyl)pyridin-2(1H)-one]
1 to 10 nM | Cc1cc2c(N)nccc2c(C)c1CNc1cc(OCc2ccc(Cn3cccn3)cc2)ccn1 [Example I-454, 6-(((4-((4-((1H-pyrazol-1-yl)methyl)benzyl)oxy)pyridin-2-yl)amino)methyl)-5,7-dimethylisoquinolin-1-amine]
1 to 10 nM | Cc1cc2c(N)nccc2c(C)c1CNc1ccnc(OCc2ccc(Cn3cccn3)cc2)c1 [Example I-455, 6-(((2-((4-((1H-pyrazol-1-yl)methyl)benzyl)oxy)pyridin-4-yl)amino)methyl)-5,7-dimethylisoquinolin-1-amine]
1 to 10 nM | Cc1cc2c(N)nccc2c(C)c1CNc1cc(OCc2ccc(Cn3ccccc3=O)cc2)c(Cl)cn1 [Example I-456, 1-(4-(((2-(((1-amino-5,7-dimethylisoquinolin-6-yl)methyl)amino)-5-chloropyridin-4-yl)oxy)methyl)benzyl)pyridin-2(1H)-one]
1 to 10 nM | Cc1cc2c(N)nccc2c(C)c1CNc1cc2c(cn1)cnn2Cc1ccc(Cn2cccn2)cc1 [Example I-458, 6-(((1-(4-((1H-pyrazol-1-yl)methyl)benzyl)-1H-pyrazolo[4,3-c]pyridin-6-yl)amino)methyl)-5,7-dimethylisoquinolin-1-amine]
< 1 nM | Cc1cc2c(N)nccc2c(C)c1CNc1cc(NCc2ccc(Cn3cc(Cl)cc(Cl)c3=O)cc2)ncn1 [Example I-463, 1-(4-(((6-(((1-amino-5,7-dimethylisoquinolin-6-yl)methyl)amino)pyrimidin-4-yl)amino)methyl)benzyl)-3,5-dichloropyridin-2(1H)-one]
< 1 nM | Cc1cc2c(N)nccc2c(C)c1CNC(=O)c1cnn(Cc2ccc3nc(C)c(C)nc3c2)c1 [Example I-464, N-((1-amino-5,7-dimethylisoquinolin-6-yl)methyl)-1-((2,3-dimethylquinoxalin-6-yl)methyl)-1H-pyrazole-4-carboxamide]
< 1 nM | Cc1cc2c(N)nccc2c(C)c1CNc1cc(OCc2ccc(CC(=O)N(C)C)cc2)cnn1 [Example I-465, 2-(4-(((6-(((1-amino-5,7-dimethylisoquinolin-6-yl)methyl)amino)pyridazin-4-yl)oxy)methyl)phenyl)-N,N-dimethylacetamide]
